Experimental data: US12606528B2, “Methods and materials for inhibiting NF-kB activity” (University of Pittsburgh - Of the Commonwealth System of …, priority 2019, dated 2026)
Like-named read-outs stand apart in the source and are kept apart here.

Tests used:
NF-κB = NF-κB assay: THP1-NF-κB-LUC cells, LPS-stimulated secreted luciferase; type: cell-based; conditions: read-out: IC50 (NF-κB assay)
Summary of the method: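 THP1-NF-κB-LUC cells (25k/well) were pretreated with compounds for 2 h, then stimulated with LPS (10 ng/mL) for 18 h. Secreted luciferase was measured and normalized to vehicle, and IC50 was fitted from the concentration series.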

TNF release = test: TNF assay: TNF release from LPS-stimulated human PBMCs (TNF ELISA); type: cell-based; conditions: PBMC, read-out: IC50 (TNF assay)
Experimental: 25k THP1-NF-κB-LUC cells were dispensed into 384 well plate (per well). Cells were treated with compounds with various concentrations for 2 hours before addition of LPS (10 ng/mL) for 18 hours. Secreted luciferase activity were measured using quant-luc reagents (1 bag of luc reagent dilute to 40 mL, use 10 μL per well). Data were normalized to vehicle control and graphed. Compound IC50 towards inhibiting NF-κB were determined through Prism. Similarly, 10k human PBMCs cells were cultured in 384 well plate (per well). Cells were treated with compounds with various concentrations for 2 hours before addition of LPS (10 ng/ml) for 18 hours, and supernatants were collected and assayed for TNF ELISA. Compound IC50 towards inhibiting TNF release were determined through Prism. • Activity: “+”>10 μM, “++”>1 μM and <10 μM, “+++”>0.1 μM and <1 μM, “++++”<0.1 μM.

[1] = THP1-NF-κB-LUC cells, LPS-stimulated
[2] = LPS-stimulated human PBMCs, TNF ELISA
[3] = THP1-NF-κB-LUC cells, compounds 2 hours before LPS (10 ng/mL) for 18 hours, secreted luciferase
[4] = human PBMCs, compounds 2 hours before LPS (10 ng/ml) for 18 hours, supernatant TNF ELISA

Row | Compound | IC50 (NF-κB; [1]) [µM] | IC50 (TNF release; [2]) [µM] | further results
1 | CC(C)S(=O)(=O)[C@@H]1CN(Cc2ccccc2)C[C@H]1S(=O)(=O)c1ccc(F)cc1 (racemic) [BC19643] | > 10 | > 10 | 
2 | CC(=O)N1C[C@@H](S(=O)(=O)c2ccc(F)cc2)[C@H](S(=O)(=O)C(C)C)C1 (racemic) [BC19670] | 1 to 10 | 1 to 10 | 
3 | CC(C)S(=O)(=O)[C@H]1CN(C(=O)c2ccccc2)C[C@@H]1S(=O)(=O)c1ccc(F)cc1 (racemic) [BC19683] | > 10 | 1 to 10 | 
4 | CC(C)S(=O)(=O)[C@H]1CN(C2CCOCC2)C[C@@H]1S(=O)(=O)c1ccc(F)cc1 (racemic) [BC19684] | > 10 | > 10 | 
5 | Cn1cnnc1-c1ccc2nc(-c3ccc(F)cc3)c(-c3ccc(F)cc3)nc2c1 [BC19101] | < 0.1 | > 10 | 
6 | Cc1nnc(-c2ccc3nc(-c4ccc(F)cc4)c(-c4ccc(F)cc4)nc3c2)[nH]1 [BC19102] | 0.1 to 1 | > 10 | 
7 | CN1CCN(C(=O)c2ccc3nc(C(F)(F)F)c(-c4ccc(F)cc4)nc3c2)CC1 [BC19103] | > 10 | > 10 | 
8 | CN1CCN(C(=O)c2ccc3nc(C(F)(F)F)c(-c4ccccc4)nc3c2)CC1 [BC19104] | > 10 | > 10 | 
9 | CN1CCN(C(=O)c2ccc3nc(C(F)(F)F)c(-c4cccnc4)nc3c2)CC1 [BC19105] | > 10 | > 10 | 
10 | CN1CCN(C(=O)c2ccc3nc(C(F)(F)F)c(-c4ccccc4F)nc3c2)CC1 [BC19106] | > 10 | > 10 | 
11 | CN1CCN(C(=O)c2ccc3nc(C(F)(F)F)c(-c4ccc(F)cc4F)nc3c2)CC1 [BC19107] | > 10 | > 10 | 
12 | CN1CCN(C(=O)c2ccc3nc(C(F)(F)F)c(-c4cc(F)cc(F)c4)nc3c2)CC1 [BC19108] | > 10 | > 10 | 
13 | CN1CCN(C(=O)c2ccc3nc(-c4cccs4)c(-c4ccc(F)cc4)nc3c2)CC1 [BC19109] | 0.1 to 1 | > 10 | 
14 | CN1CCN(C(=O)c2ccc3nc(-c4ccc(F)cc4)c(C(F)(F)F)nc3c2)CC1 [BC19110] | > 10 | > 10 | 
15 | Fc1ccc(-c2nc3cc(-c4nnc[nH]4)ccc3nc2C(F)(F)F)cc1 [BC19111] | > 10 | > 10 | 
16 | Cn1nnnc1-c1ccc2nc(C(F)(F)F)c(-c3ccc(F)cc3)nc2c1 [BC19112] | > 10 | > 10 | 
17 | Fc1ccc(-c2nc3cc(-c4nnn[nH]4)ccc3nc2C(F)(F)F)cc1 [BC19113] | > 10 | > 10 | 
18 | Cc1cnc(-c2ccc3nc(C(F)(F)F)c(-c4ccc(F)cc4)nc3c2)o1 [BC19114] | > 10 | > 10 | 
19 | Fc1ccc(-c2nc3cc(-c4ncco4)ccc3nc2C(F)(F)F)cc1 [BC19115] | > 10 | > 10 | 
20 | Fc1ccc(-c2nc3cc(-c4nnco4)ccc3nc2C(F)(F)F)cc1 [BC19116] | > 10 | > 10 | 
21 | NC(=O)c1ccc2nc(-c3ccc(F)cc3)c(C(F)(F)F)nc2c1 [BC19117] | > 10 | > 10 | 
22 | O=C(O)c1ccc2nc(-c3ccc(F)cc3)c(-c3ccc(F)cc3)nc2c1 [BC19118] | 1 to 10 | > 10 | 

Row | Compound | IC50 (NF-κB; [1]) [µM] | IC50 (TNF release; [2]) [µM] | further results
23 | CNC(=O)c1ccc2nc(-c3cccs3)c(-c3ccc(F)cc3)nc2c1 [BC19119] | < 0.1 | < 0.1 | 
24 | C#CCNC(=O)c1ccc2nc(-c3cccs3)c(-c3ccc(F)cc3)nc2c1 [BC19120] | < 0.1 | < 0.1 | 
25 | O=c1c(S(=O)(=O)c2ccc(F)c(F)c2)c[nH]c2cccnc12 [BC19121] |  |  | IC50 (NF-κB; [3]): > 10 µM; IC50 (TNF release; [4]): > 10 µM
26 | O=c1c(S(=O)(=O)c2ccc(F)c(F)c2)c[nH]c2ccc(Cl)nc12 [BC19122] |  |  | IC50 (NF-κB; [3]): > 10 µM; IC50 (TNF release; [4]): > 10 µM
27 | O=c1c(S(=O)(=O)c2ccc(F)cc2)c[nH]c2ccncc12 [BC19123] |  |  | IC50 (NF-κB; [3]): 1 to 10 µM; IC50 (TNF release; [4]): > 10 µM
28 | O=c1c(S(=O)(=O)c2ccc(F)cc2)c[nH]c2cccnc12 [BC19124] |  |  | IC50 (NF-κB; [3]): > 10 µM; IC50 (TNF release; [4]): > 10 µM
29 | CCS(=O)(=O)c1oc(-c2ccc(C)cc2)nc1S(=O)(=O)c1ccc(F)cc1 [BC19125] | < 0.1 | < 0.1 | 
30 | Cc1ccc(-c2nc(S(=O)(=O)c3ccc(Cl)cc3)c(S(C)(=O)=O)o2)cc1 [BC19126] | 1 to 10 | 0.1 to 1 | 
31 | CCS(=O)(=O)c1oc(-c2ccc(C)cc2)nc1S(=O)(=O)c1ccc(Cl)cc1 [BC19127] | < 0.1 | 1 to 10 | 
32 | Cc1ccc(-c2nc(S(=O)(=O)c3ccc(Br)cc3)c(S(C)(=O)=O)o2)cc1 [BC19128] | 1 to 10 | 0.1 to 1 | 
33 | CCS(=O)(=O)c1oc(-c2ccc(C)cc2)nc1S(=O)(=O)c1ccc(Br)cc1 [BC19129] | < 0.1 | 0.1 to 1 | 
34 | CCCS(=O)(=O)c1oc(-c2ccc(C)cc2)nc1S(=O)(=O)c1ccc(Br)cc1 [BC19130] | 0.1 to 1 | 0.1 to 1 | 
35 | O=C1COc2cc(S(=O)(=O)Nc3ccc(Cl)cc3)c(Cl)cc2N1 [BC19133] |  |  | IC50 (NF-κB; [3]): < 0.1 µM; IC50 (TNF release; [4]): > 10 µM
36 | CCOc1ccc(NS(=O)(=O)c2cc3c(cc2Br)NC(=O)CO3)cc1 [BC19135] |  |  | IC50 (NF-κB; [3]): > 10 µM; IC50 (TNF release; [4]): > 10 µM
37 | CC(C)c1ccc(NS(=O)(=O)c2cc3c(cc2Cl)NC(=O)CO3)cc1 [BC19136] |  |  | IC50 (NF-κB; [3]): > 10 µM; IC50 (TNF release; [4]): > 10 µM
38 | COc1ccc(NS(=O)(=O)c2cc3c(cc2Br)NC(=O)CO3)cc1 [BC19137] |  |  | IC50 (NF-κB; [3]): 0.1 to 1 µM; IC50 (TNF release; [4]): > 10 µM
39 | CCc1ccc(NS(=O)(=O)c2cc3c(cc2Br)NC(=O)CO3)cc1 [BC19138] |  |  | IC50 (NF-κB; [3]): < 0.1 µM; IC50 (TNF release; [4]): > 10 µM
40 | Cn1nnnc1-c1ccc2nc(-c3ccc(F)cc3)c(-c3ccc(F)cc3)nc2c1 [BC19139] | < 0.1 | > 10 | 
41 | Cc1cnc(-c2ccc3nc(-c4ccc(F)cc4)c(-c4ccc(F)cc4)nc3c2)o1 [BC19140] | 1 to 10 | > 10 | 
42 | Cc1nnc(-c2ccc3nc(-c4ccc(F)cc4)c(-c4ccc(F)cc4)nc3c2)o1 [BC19141] | 0.1 to 1 | > 10 | 
43 | CN1CCN(C(=O)c2ccc3nc(C(F)(F)F)c(-c4cccc(F)c4)nc3c2)CC1 [BC19142] | > 10 | > 10 | 
44 | Fc1ccc(-c2nc3ccc(-c4nnc[nH]4)cc3nc2-c2ccc(F)cc2)cc1 [BC19143] | 0.1 to 1 | > 10 | 

Row | Compound | IC50 (NF-κB; [1]) [µM] | IC50 (TNF release; [2]) [µM] | further results
45 | Fc1ccc(-c2nc3ccc(-c4nnn[nH]4)cc3nc2-c2ccc(F)cc2)cc1 [BC19144] | 1 to 10 | > 10 | 
46 | Fc1ccc(-c2nc3ccc(-c4ncco4)cc3nc2-c2ccc(F)cc2)cc1 [BC19145] | 1 to 10 | > 10 | 
47 | Cc1ccc(-c2nc(S(=O)(=O)c3ccc(C)cc3)c(S(=O)(=O)C(C)C)o2)cc1 [BC19146] | < 0.1 | 0.1 to 1 | 
48 | Cc1ccc(-c2nc(S(=O)(=O)c3ccc(F)cc3)c(S(C)(=O)=O)o2)cc1 [BC19147] | 0.1 to 1 | 0.1 to 1 | 
49 | Cn1cc(-c2ccc3nc(-c4ccc(F)cc4)c(-c4ccc(F)cc4)nc3c2)nn1 [BC19148] | < 0.1 | > 10 | 
50 | CN1CCN(C(=O)c2ccc3nc(C(F)(F)F)c(-c4ccncc4)nc3c2)CC1 [BC19149] | > 10 | > 10 | 
51 | Fc1ccc(-c2nc3ccc(-c4c[nH]nn4)cc3nc2-c2ccc(F)cc2)cc1 [BC19150] | 0.1 to 1 | 1 to 10 | 
52 | Cc1nnc(-c2ccc3nc(C(F)(F)F)c(-c4ccc(F)cc4)nc3c2)o1 [BC19151] | > 10 | > 10 | 
53 | Cn1nnnc1-c1ccc2nc(-c3ccc(F)cc3)c(C(F)(F)F)nc2c1 [BC19152] | > 10 | > 10 | 
54 | Fc1ccc(-c2nc3ccc(-c4nnn[nH]4)cc3nc2C(F)(F)F)cc1 [BC19153] | > 10 | > 10 | 
55 | C#CCNC(=O)c1ccc2nc(-c3ccc(F)cc3)c(-c3ccc(F)cc3)nc2c1 [BC19154] | < 0.1 | > 10 | 
56 | NC(=O)c1ccc2nc(-c3cccs3)c(-c3ccc(F)cc3)nc2c1 [BC19155] | 0.1 to 1 | 1 to 10 | 
57 | O=C(O)c1ccc2nc(-c3ccc(F)cc3)c(-c3cccs3)nc2c1 [BC19156] |  |  | IC50 (NF-κB): 1 to 10 µM; IC50 (TNF release; Homo sapiens): > 10 µM
58 | N#Cc1ccc2nc(-c3cccs3)c(-c3ccc(F)cc3)nc2c1 [BC19157] | > 10 | > 10 | 
59 | N#Cc1ccc2nc(-c3ccc(F)cc3)c(C(F)(F)F)nc2c1 [BC19158] | > 10 | > 10 | 
60 | CCOc1ccccc1NS(=O)(=O)c1cc2c(cc1C)NC(=O)CO2 [BC181379] |  |  | IC50 (NF-κB; [3]): > 10 µM
61 | Cc1cc2c(cc1S(=O)(=O)Nc1ccccc1Cl)OCC(=O)N2 [BC181380] |  |  | IC50 (NF-κB; [3]): 0.1 to 1 µM
62 | COc1ccc(NS(=O)(=O)c2cc3c(cc2C)N(C(C)=O)CCO3)cc1OC [BC181381] |  |  | IC50 (NF-κB; [3]): > 10 µM
63 | COc1ccc(NS(=O)(=O)c2cc3c(cc2C)N(C(C)=O)CCO3)c(OC)c1 [BC181382] |  |  | IC50 (NF-κB; [3]): > 10 µM
64 | CC(=O)N1CCOc2cc(S(=O)(=O)Nc3ccc(C)c(F)c3)c(C)cc21 [BC181383] |  |  | IC50 (NF-κB; [3]): 0.1 to 1 µM
65 | Cc1cc2c(cc1S(=O)(=O)Nc1ccc(C(C)C)cc1)OCCN2C [BC181384] |  |  | IC50 (NF-κB; [3]): 1 to 10 µM
66 | CC(=O)Nc1ccc(NS(=O)(=O)c2cc3c(cc2C)NC(=O)CO3)cc1 [BC181385] |  |  | IC50 (NF-κB; [3]): > 10 µM
